Source: PMC5309800, “Natural amines inhibit activation of human plasmacytoid dendritic cells through CXCR4 engagement” (Nature Communications, 2017)

Key:
[1] = molecular target: T1, CXC chemokine receptor 4 (CXCR4) (Homo sapiens, UniProt P61073); assay: cell-based
[2] = molecular target: T1, CXC chemokine receptor 4 (CXCR4); assay: Tag-lite TR-FRET competition with CXCL12-red on HALO-CXCR4 cells; also inhibits […]5 antibody binding on Jurkat cells; format: cell-based

T1 sequence (P61073 whole entry): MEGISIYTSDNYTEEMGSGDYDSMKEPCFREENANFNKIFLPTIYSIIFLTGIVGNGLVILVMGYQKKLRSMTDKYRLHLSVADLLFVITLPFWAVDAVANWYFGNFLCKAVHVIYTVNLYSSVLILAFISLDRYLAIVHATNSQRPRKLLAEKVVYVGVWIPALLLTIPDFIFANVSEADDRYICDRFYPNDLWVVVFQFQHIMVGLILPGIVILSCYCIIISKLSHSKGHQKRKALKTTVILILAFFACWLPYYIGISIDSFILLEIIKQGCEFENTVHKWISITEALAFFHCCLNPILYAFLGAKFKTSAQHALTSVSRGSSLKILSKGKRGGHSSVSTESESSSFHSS

Row | Ki [1] | Structure (SMILES) | Ki [2]
1 | ~26.5 µM | NCCc1c[nH]cn1 [HA, histamine] | –
2 | – | NC(=NCc1ccc(Cl)cc1)SCCCc1cnc[nH]1 [CB, clobenpropit] | 1.5 µM
